Columns and labels:
plated stage 4 cells = assay: qRT-PCR and immunostaining of plated stage 4 cells treated with cytoskeletal modifying compounds; format: cell-based, human
From the text: For experiments investigating the effects of plating pancreatic progenitors, cells were differentiated with the suspension protocol for stages 1-3. At the end of stage 3, clusters were single cell dispersed with TrypLE and plated onto tissue culture plates coated with various ECM proteins at 0.625×10^6 cells/cm^2. Differentiation media for the remainder of this hybrid protocol were the same as for the suspension protocol with the exception that Y-27632 and Activin A were omitted on days 2-5 of stage 4. Additional compounds were added as indicated in each experiment: 1 μM latrunculin A (Cayman Chemical, 10010630), 1 μM latrunculin B (Cayman Chemical, 10010631), 1 μM cytochalasin D (MilliporeSigma, C2618), 1 μM jasplakinolide (Cayman Chemical, 11705), 10 μM blebbistatin (MilliporeSigma, 203389), 1 μM nocodazole (Cayman Chemical, 13857), 1 μM Y-15 (Cayman Chemical, 14485), 10 μM Y-27632, and 10 μM GDC-0994 (Selleckchem, S7554). A variety of ECM coatings were initially tested with this plating methodology, including collagen I (Corning, 354249), collagen IV (Corning, 354245), fibronectin (Gibco, 33016-015), vitronectin (Gibco, A14700), matrigel (Corning, 356230), gelatin (Fisher, G7-500), and laminins 111, 121, 211, 221, 411, 421, 511, and 521 (Biolamina, LNKT-0201). All subsequent experiments with this hybrid protocol were performed on collagen I.
Brightfield images were taken with a Leica DMi1 inverted light microscope, and fluorescence images were captured with a Nikon A1Rsi confocal microscope. For immunostaining, cells were fixed with 4% paraformaldehyde (PFA) at room temperature for 30 minutes. They were then blocked and permeabilized for 45 minutes at room temperature with an immunocytochemistry (ICC) solution consisting of 0.1% triton X (Acros Organics, 327371000) and 5% donkey serum (Jackson Immunoresearch, 017000-121) in PBS (Corning, 21-040-CV). Samples were then incubated with primary antibodies diluted in ICC solution overnight at 4° C., washed with ICC, incubated with secondary antibodies diluted in ICC for 2 hours at room temperature, and stained with DAPI for 15 minutes at room temperature. For histological sectioning, whole SC-β cell clusters generated with the planar protocol and mouse kidneys containing transplanted cells were fixed overnight with 4% PFA at 4° C. The in vitro clusters were also embedded in Histogel (Thermo Scientific, hg-4000-012). These samples were then paraffin-embedded and sectioned by the Division of Comparative Medicine (DCM) Research Animal Diagnostic Laboratory Core at Washington University in St. Louis. Paraffin was removed from sectioned samples with Histoclear (Thermo Scientific, C78-2-G), and antigen retrieval was carried out in a pressure cooker (Proteogenix, 2100 Retriever) with 0.05 M EDTA (Ambion, AM9261). Slides were blocked and permeabilized with ICC solution for 45 minutes, incubated with primary antibodies in ICC solution overnight at 4° C., and incubated with secondary antibodies for 2 hours at room temperature. Slides were then sealed with DAPI Fluoromount-G (SouthernBiotech, 0100-20).
RNA was extracted from either whole clusters or cells directly on the plate with the RNeasy Mini Kit (Qiagen, 74016). Samples were treated with a DNAse kit (Qiagen, 79254) during extraction. The High Capacity cDNA Reverse Transcriptase Kit (Applied Biosystems, 4368814) was used to synthesize cDNA on a thermocycler (Applied Biosystems, A37028). The PowerUp SYBR Green Master Mix (Applied Biosystems, A25741) was used on a StepOnePlus (Applied Biosystems), and real time PCR results were analyzed using a ΔΔCt methodology. TBP and GUSB were both used as housekeeping genes. Primer sequences were as follows.

Stage 6 cells [1] = assay: Perifusion GSIS with sequential secretagogue challenges; format: cell-based, human; settings: for insulin secretion during second challenge, secretagogue added to 20 mM glucose: 30 mM KCL, 20 mM L-Arginine, 300 μM Tolbutamide, 100 μM IBMX, 10 nM Extendin-4
Procedure: The system used a high precision 8-channel dispenser pump (ISMATEC; ISM931C) in conjunction with 0.015″ inlet and outlet two-stop tubing (ISMATEC; 070602-04i-ND) connected to 275-μl cell chamber (BioRep; Pen-Chamber) and dispensing nozzle (BioRep; PERI-NOZZLE) using 0.04″ connection tubbing (BioRep; Peri-TUB-040). Solutions, tubing, and cells were maintained at 37° C. in a water bath. Stage 6 clusters and cadaveric human islets were washed with KRB twice and resuspended in 2 mM glucose KRB. Cells were then loaded onto a Biorep perifusion chamber sandwiched between two layers of Bio-Gel P-4 polyacrylamide beads (Bio-Rad; 150-4124). Cells were perfused with 2 mM glucose KRB for 90 min prior to sample collection for equilibration. For single high glucose challenges, sample collection was started with cells exposed to 2 mM glucose KRB for 12 min, followed by 24 min of 20 mM glucose KRB, and back to 2 mM glucose KRB for an additional 12 min. For multiple secretagogue challenges, sample collection was started with cells exposed to 2 mM glucose KRB for 6 min, followed by 12 min of 20 mM glucose KRB, 6 min 2 mM glucose KRB, 12 min of 20 mM glucose KRB plus treatment, and finally 6 min of 2 mM glucose KRB. Treatments with multiple secretagogues were as follows: 20 mM glucose only, 10 nM Extendin-4 (MilliporeSigma; E7144), 100 μM IBMX (MilliporeSigma; 15879), 300 μM Tolbutamide (MilliporeSigma; T0891), 20 mM L-Arginine (MilliporeSigma; A5006), and 30 mM KCL (Thermo Fisher; BP366500). Effluent was collected at a 100 μl/min flow rate with 2-4 min collection points. After sample collection, clusters were collected and lysed in 10 mM Tris (MilliporeSigma; T6066), 1 mM EDTA, and 0.2% Triton-X 100 solution and DNA was quantified using Quant-iT Picogreen dsDNA assay kit (Invitrogen; P7589). Insulin secretion was quantified using the Human Insulin Elisa kit.

Stage 6 cells [2] = system: Stage 6 cells
Procedure: (§1) Assays were performed by collecting ˜20-30 stage 6 clusters or cadaveric human islets, washed twice with KRB buffer (128 mM NaCl, 5 mM KCl, 2.7 mM CaCl2) 1.2 mM MgSO4, 1 mM Na2HPO4, 1.2 mM KH2PO4, 5 mM NaHCO3, 10 mM HEPES (Gibco; 15630-080), and 0.1% BSA), resuspended in 2 mM glucose KRB, and placed into transwells (Corning; 431752) in 24-well plates. Clusters were incubated at 2 mM glucose KRB for a 1 hr equilibration. The transwell was then drained and transferred into a new 2 mM glucose KRB well, discarding the old KRB solution. Clusters were again incubated for 1 hr at low glucose and then the transwell is drained and transferred into a new 2, 5.6, 11.1, or 20 mM glucose KRB well, retaining the old 2 mM glucose KRB. Clusters were then incubated for 1 hr at high glucose and then the transwell was drained and the old glucose KRB was retained. The retained KRB was run with the Human Insulin Elisa (ALPCO; 80-INSHU-E10.1) to quantify insulin secretion. The cells were single-cell dispersed by TrypLE treatment, counted on a Vi-Cell XR, and viable cell counts used to normalize insulin secretion.

[3] = system: TGFβ signaling (phosphorylated SMAD); assay: Western blot of SMAD 2/3 phosphorylation in Stage 6 cells; format: cell-based, human; settings: Alk5i versus DMSO
Procedure: Protein was extracted from cell clusters after washing with PBS by placing in western blot lysis buffer consisting 50 mM HEPES, 140 mM NaCl (MilliporeSigma; 7647-14-5), 1 mM EDTA (MilliporeSigma, 1233508), 1% Triton X-100, 0.1% Na-deoxycholate (MilliporeSigma: D6750), 0.1% SDS (ThermoScientific; 24730020), 1 mM Na3VO4 (MilliporeSigma; 450243), 10 mM NaF (MilliporeSigma; S7920), and 1% Protease Inhibitor Cocktail (MilliporeSigma; p8340), incubating on a shaker for 15 min at 4° C., and centrifuging at 10000 RCF for 10 min at 4° C. Protein amount was quantified with the Pierce BCA Protein Assay (Thermo Scientific; 23228). Protein (30 μg) was loaded onto a 4-20% gradient polyacrylamide gel (Invitrogen; SP04200BOX), resolved by electrophoresis, and transferred onto a 0.45 μm nitrocellulose membrane (BioRad; 1620115). The nitrocellulose membrane was blocked with Blotting Grade Blocker (BioRad; 170-6404) and incubated with rabbit-anti-phospho-SMAD⅔ 1:1000 (Cell Signaling Technologies; 8828) and rabbit-anti-Actin 1:1000 (Santa Cruz Biotechnology; SC1616) antibodies in blocker overnight at 4° C. Membrane was washed and stained with rabbit secondary antibody 1:2500 (Jackson Immuno Research Laboratories; 211-032-171) in blocker for 2 hr at 4° C. and developed using SuperSignal West Femto (Thermo Scientific; 34096). Images were taken on an Odyssey FC (Li-COR). After imaging, the nitrocellulose membrane was stripped using Restore Western Blot Stripping Buffer (Thermo Scientific; 21059), incubated with rabbit-anti-SMAD⅔ (Cell Signaling Technologies; 8685) antibody overnight at 4° C., washed and stained with rabbit secondary antibody 1:2500 in blocker for 2 hr 4° C., developed using SuperSignal West Femto, and imaged using the Odyssey FC.

Stage 5 cells = system: Stage 5 cells
Procedure: To initiate differentiation, undifferentiated cells were single-cell dispersed using Accutase and seeded at 6×10^5 cells/mL in mTeSR1+10 μM Y27632 in a 30-ml spinner flask. Cells were then cultured for 72 hr in mTeSR1 and then cultured in the following differentiation media. Stage 1 (3 days): S1 media+100 ng/ml Activin A (R&D Systems; 338-AC)+3 μM Chir99021 (Stemgent; 04-0004-10) for 1 day. S1 media+100 ng/ml Activin A for 2 days. Stage 2 (3 days): S2 media+50 ng/ml KGF (Peprotech; AF-100-19). Stage 3 (1 day): S3 media+50 ng/ml KGF+200 nM LDN193189 (Reprocell; 040074)+500 nM PdBU (MilliporeSigma; 524390)+2 μM Retinoic Acid (MilliporeSigma; R2625)+0.25 μM Sant1 (MilliporeSigma; S4572)+10 μM Y27632. Stage 4 (5 days): S4 media+5 ng/mL Activin A+50 ng/mL KGF+0.1 μM Retinoic Acid+0.25 μM SANT1+10 μM Y27632. Stage 5 (7 days): S5 media+10 μM ALK5i II (Enzo Life Sciences; ALX-270-445-M005)+20 ng/mL Betacellulin (R&D Systems; 261-CE-050)+0.1 μM Retinoic Acid+0.25 μM SANT1+1 μM T3 (Biosciences; 64245)+1 μM XXI (MilliporeSigma; 595790). Stage 6 (7-35 days): ESFM.
as §1
Clusters were single-cell dispersed with TrypLE, fixed with 4% paraformaldehyde for 30 min at 4° C., blocked and permeabilized with staining buffer for 30 min at 4° C., incubated with primary antibodies in staining buffer overnight at 4° C., incubated with secondary antibodies in staining buffer for 2 hr at 4° C., resuspended in staining buffer, and analyzed on an LSRII (BD Biosciences) or X-20 (BD Biosciences). Dot plots and percentages were generated using FlowJo. All antibodies were used at 1:300 dilution except where noted. The antibodies used were: rat-anti-C-peptide, mouse-anti-nkx6.1 (1:100), mouse-anti-glucagon, rabbit-anti-somatostatin, rabbit-anti-chromogranin A (1:1000), goat-anti-pdx1, anti-rat-alexa fluor 488, anti-mouse-alexa fluor 647 (Invitrogen; a31571), anti-rabbit-alexa fluor 647 (Invitrogen; a31573), anti-goat-alexa fluor 647 (Invitrogen; a21447), anti-rabbit-alexa fluor 488 (Invitrogen; a21206).
RNA was extracted using the RNeasy Mini Kit (Qiagen; 74016) with DNase treatment (Qiagen; 79254), and cDNA was synthesized using High Capacity cDNA Reverse Transcriptase Kit (Applied Biosystems; 4368814). Real-time PCR reactions were performed in PowerUp SYBR Green Master Mix (Applied Biosystems; A25741) on a StepOnePlus (Applied Biosystems) and analyzed using ΔΔCt methodology. TBP was used as a normalization gene.

Compound: C/C1=C\[C@H](C)C[C@H](C)OC(=O)C[C@H](c2ccc(O)cc2)NC(=O)[C@@H](Cc2c(Br)[nH]c3ccccc23)N(C)C(=O)[C@H](C)NC(=O)[C@@H](C)C1 [jasplakinolide]
- premature NEUROG3 expression in reaggregated clusters (plated stage 4 cells; added to pancreatic progenitors during reaggregation after dispersion): attenuated premature NEUROG3 expression

Compound: N=C(N)NCCC[C@H](N)C(=O)O [L-Arginine]
- insulin secretion during second challenge, secretagogue added to 20 mM glucose (Stage 6 cells [1]): largest increases

Compound: [Cl-].[K+] [KCl]
- response of Stage 6 cells to KCl challenge compared to human islets (Stage 6 cells [1]; 30 mM KCL with 20 mM glucose): stronger than in human islets
- insulin secretion during second challenge, secretagogue added to 20 mM glucose (Stage 6 cells [1]): largest increases

Compound: C/C1=C/C(=O)O[C@@H]2C[C@@H](CC[C@H](C)/C=C\CC1)O[C@@](O)([C@@H]1CSC(=O)N1)C2 [Latrunculin B]
- dose response of NEUROG3 expression (plated stage 4 cells; added during stage 4, qRT-PCR): increased NEUROG3 expression in a dose-dependent manner
- concentration required relative to latrunculin A to achieve a similar effect on NEUROG3 (plated stage 4 cells; plated HUES8, stage 4): ~10 ×

Compound: CCCCNC(=O)NS(=O)(=O)c1ccc(C)cc1 [Tolbutamide]
- insulin secretion during second challenge, secretagogue added to 20 mM glucose (Stage 6 cells [1]): increased insulin secretion over high glucose alone

Compound: exendin-4
- insulin secretion during second challenge, secretagogue added to 20 mM glucose (Stage 6 cells [1]): increased insulin secretion over high glucose alone

Compound: Cc1cccc(-c2[nH]ncc2-c2ccc3ncccc3n2)n1 [Alk5i, Alk5 inhibitor type II]
- GSIS in a static assay with inclusion during Stage 6 (Stage 6 cells [2]; Alk5i during Stage 6): relatively weak but statistically significant GSIS
- insulin secretion in the dynamic GSIS assay (Stage 6 cells [2]; Alk5i during Stage 6): dramatically reduced insulin secretion
- proinsulin/insulin ratio (Stage 6 cells [2]; DMSO versus Alk5i during Stage 6): remained similar
- fraction of cells expressing pancreatic endocrine markers, including C-peptide (Stage 6 cells [2]; DMSO- versus Alk5i-treated cells, Stage 6): remained similar
- insulin content (Stage 6 cells [2]; removal of Alk5i during Stage 6 versus treatment): increased with removal of Alk5i
- phosphorylated SMAD [3]: diminished phosphorylated SMAD
- insulin secretion after further 7 d in Stage 6 (Stage 5 cells; Alk5i during Stage 5, Stage 6 without Alk5i nor cluster resizing, 20 mM glucose): substantially higher in cells treated with Alk5i during Stage 5
- INS and GCG gene expression (Stage 5 cells; Alk5i omission during Stage 5): decreased with Alk5i omission
- SST expression (Stage 5 cells; Alk5i omission during Stage 5): slightly increased
- fraction of cells co-expressing C-peptide and NKX6-1 (Stage 5 cells; omitting Alk5i during Stage 5): decreased by omitting Alk5i
- fraction of cells differentiated to a C-peptide+ phenotype (Stage 5 cells; omitting Alk5i during Stage 5): decreased by omitting Alk5i
- fraction of cells differentiated to endocrine cells (CHGA+) (Stage 5 cells; omitting Alk5i during Stage 5): unchanged
- expression of NKX6-1 and PDX1 (Stage 5 cells; without Alk5i during Stage 5): reduced without Alk5i

Compound: CC(C)Cn1c(=O)n(C)c(=O)c2[nH]cnc21 [3-isobutyl-1-methylxanthine]
- insulin secretion during second challenge, secretagogue added to 20 mM glucose (Stage 6 cells [1]): increased insulin secretion over high glucose alone
